Molecules are shown by their SMILES. Entries after “also recorded” stand apart in the source; their conditions may differ.

Data on 1 compound can be found in US11357752B2, “Carolacton and derivatives thereof for use in the treatment of cell proliferation disorders” (Helmholtz-Zentrum für Infektionsforschung GmbH, priority 2017, dated 2022).

Test in all cases: Surface plasmon resonance assay
One assay has as its target T1, hsMTHFD2 (Homo sapiens, UniProt P13995).
T1 construct: His-tag (vector pHis-TEV); made in house; host or cells: E. coli BL21 (DE3)
T1 sequence (P13995 36-350): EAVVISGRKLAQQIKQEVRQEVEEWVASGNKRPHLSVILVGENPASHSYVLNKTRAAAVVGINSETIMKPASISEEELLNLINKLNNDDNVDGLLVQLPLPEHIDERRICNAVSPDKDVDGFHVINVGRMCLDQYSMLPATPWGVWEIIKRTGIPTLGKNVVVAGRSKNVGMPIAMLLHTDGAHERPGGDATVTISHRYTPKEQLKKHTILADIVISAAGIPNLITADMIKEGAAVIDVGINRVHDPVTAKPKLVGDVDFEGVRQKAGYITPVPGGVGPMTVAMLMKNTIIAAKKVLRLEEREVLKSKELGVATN
The format is binding. The conditions noted are these: read-out: KD (SPR). On the procedure: All surface plasmon resonance (SPR) experiments described in this study were performed on a Biacore X100 system. Different FoIDs with or without His-tag were coupled on CM5 sensor chips (GE Healthcare) by the amine coupling method using a kit from GE Healthcare Life Sciences (Freiburg, Germany). A pH scouting process was performed before protein immobilization to test the most appropriate buffer and the protein concentration for protein coupling. Finally, 20 μg/mL of ecFoID in 10 mM maleate buffer (pH 6.8), 30 μg/mL of ecFoID Q98H in 10 mM maleate buffer (pH 6.3), 40 μg/mL of ecFoID K54N in 10 mM maleate buffer (pH 5.8), 20 μg/mL of spFoID in 10 mM maleate buffer (pH 6.0) and 15 μg/mL of MTHFD2 (His-tag cleaved) in 10 mM maleate buffer (pH 6.8) were used for coupling. In the protein immobilization procedure, the contact time was calculated based on the pH scouting results to achieve -3000-5000 relative resonance units (RU). The buffer used in the SPR assays was 1×HBS-P buffer (10 mM HEPES pH 7.4, 150 mM NaCl, 0.05% Tween 20). The 1 mM stock solution of carolacton was prepared in 1×HBS-P buffer and diluted to different concentration ranges by two-fold serial dilution. In the SPR assay, the association time was 180 s and the dissociation time was 600 s. Data analysis was performed using the Biacore evaluation software. […]

The target in the next assay is T2, ecFoID K54N (Escherichia coli, UniProt P24186, K54N).
T2 construct: made in house; host or cells: E. coli BL21 (DE3)
Format: binding, E. coli. The protocol: (§1) All surface plasmon resonance (SPR) experiments described in this study were performed on a Biacore X100 system. Different FoIDs with or without His-tag were coupled on CM5 sensor chips (GE Healthcare) by the amine coupling method using a kit from GE Healthcare Life Sciences (Freiburg, Germany). A pH scouting process was performed before protein immobilization to test the most appropriate buffer and the protein concentration for protein coupling. Finally, 20 μg/mL of ecFoID in 10 mM maleate buffer (pH 6.8), 30 μg/mL of ecFoID Q98H in 10 mM maleate buffer (pH 6.3), 40 μg/mL of ecFoID K54N in 10 mM maleate buffer (pH 5.8), 20 μg/mL of spFoID in 10 mM maleate buffer (pH 6.0) and 15 μg/mL of MTHFD2 (His-tag cleaved) in 10 mM maleate buffer (pH 6.8) were used for coupling. In the protein immobilization procedure, the contact time was calculated based on the pH scouting results to achieve -3000-5000 relative resonance units (RU). The buffer used in the SPR assays was 1×HBS-P buffer (10 mM HEPES pH 7.4, 150 mM NaCl, 0.05% Tween 20). The 1 mM stock solution of carolacton was prepared in 1×HBS-P buffer and diluted to different concentration ranges by two-fold serial dilution. In the SPR assay, the association time was 180 s and the dissociation time was 600 s. Data analysis was performed using the Biacore evaluation software. The SPR curves were exported to be re-plotted in OriginPro 2016 (OriginLab, Northampton, Mass., US).

Another assay deals with T3, ecFoID Q98H (Escherichia coli, UniProt P24186, Q98H).
T3 construct: made in house; host or cells: E. coli BL21 (DE3)
Format: binding, E. coli. On the procedure:
as §1

The target of a further assay is T4, ecFoID (Escherichia coli, UniProt P24186).
T4 construct: His-tag (vector pHis-TEV); made in house; host or cells: E. coli BL21 (DE3)
The format is binding, E. coli. The protocol: as §1

Usually Kd stands for the constant that tells how readily two partners part at equilibrium. For `CO[C@H](CC(=O)O)[C@@H](C)C(=O)[C@H](C)/C=C(\C)[C@H]1OC(=O)[C@H](O)[C@H](O)/C=C/[C@H](C)CCC[C@@H]1C` [Carolacton, carolacton], the Kd is 19 nM at hsMTHFD2, 20000 nM at ecFoID Q98H and 10 nM on ecFoID. The entries for the “binding (SPR), in words” value at ecFoID K54N and on ecFoID Q98H (ecFoID Q98H) were “no binding; also recorded: does not bind” and “weak binding”, respectively.
